This note sets out measurements from US20130079287A1, “CAFFEOYLALPHANEOENDORPHIN PEPTIDE DERIVATIVE AND USE THEREOF AS ANTI-ITCHING AND ANTI-ATOPIC AGENTS” (priority 2011, published 2013).

Several values for one entry are separate records, joined by “and”; a condition that tells them apart may be missing. Equal values may be shown once. Marks after values point to notes of the source that are not given here. Where a SMILES comes first, the peptide text is derived from it. Where no end group is shown, it is not given here. The star is where a group is joined. Caffeoyl = O=C(/C=C/c1ccc(O)c(O)c1)*

Series [1] concerns peptidase derived from the cell disruption solution of keratinocyte. In words: Stability to peptidase, cell disruption solution of keratinocyte. The following applies: 10,000 ppm, 37° C., 6 hours. On the procedure:
(§1) After culturing at 37° C. for 6 hours, the residual contents were analyzed, and the existing contents were compared and evaluated on a percentage (%) to the initial existing contents.

The subject of series [2] is peptidase derived from the cell disruption solution of fibroblast. In words: Stability to peptidase, cell disruption solution of fibroblast. The following applies: 10,000 ppm, 37° C., 6 hours. Here is the method:
as §1

The next series deals with NZW Rabbit skins. In words: Skin irritation safety test (topical toxicity). In kind it is in vivo, New Zealand White-Rabbit. The arrangement: key to Erythema & Eschar score: 0: Absolutely no erythema; 1: Very light erythema (barely identifiable level with the naked eye); 2: Obvious erythema; 3: A little serious erythema; 4: Serious erythema (carrot color) and crust formation; key to clinical signs: —: Normal. The following applies: for clinical signs: female rabbit; for Edema score, Average / Edema score, Sum / Erythema & Eschar score, Average / Erythema & Eschar score, Sum: 6 animals. Here is the method: In order to confirm the safety of caffeoyl peptide derivative according to the present invention to a human body skin when applying besides a skin that is an expected first human body application method, a topical toxicity skin irritation safety that is pre-clinical test method of pharmaceuticals was verified. The safety verification was performed by asking to Korea Research Institute of Chemical Technology that is an approved GLP Certificate Authority; the maximum application concentration range to skin irritation during topical toxicity was set at 10 mg/ml concentration, and then it was tested that irritant to a skin at the above concentration was not existed. For the above test, at least 6 of young and healthy white rabbits (New Zealand White-Rabbit, 2.0˜3.0 kg) were used. After selecting only healthy rabbits through observing a general symptom every day for 5 days during an accommodating period from an obtaining day, hairs of the abdominal regions of the selected rabbits was shaved away and then 6 rabbits with normal skins were used for test. […] An keeping environment was simply as follows: the test was performed in a rabbit keeping room in the institute by setting the temperature of 22° C., the relative humidity of 50%, a number of ventilation of 10˜15 number/hr, lighting of 12 h lights-on/12 h lights-off (08:00˜20:00), an intensity of illumination of 150˜300 Lux. For monitoring of keeping environment, whole humidity in an animal room was measured by an auto-measurer and environment conditions, such as, an intensity of illumination were regularly measured during a test period. As a result of environment measurement in an animal room, there was no change to affect to the test. The animals were kept individually in a stainless keeping box (380×480×300 mm, JungDo Industry) during accommodation, inspection, and observation periods. Feeds that was feeds for Rabbits, experiment animals, supplied from Cargillagripurina Cor. (Chonbuk, Gunsan-si Soyong dong 56-4) was freely taken by the animals, and water that was a filtered water through UV irradiation was freely taken by using a water bottle. In order to confirm the contaminant in the feeds and water, the contaminant of feeds was confirmed by receiving the feed report card according to regular test of manufacturer from a feeds supplier, and the contaminant of water was confirmed through the regular test according to applicable standard working water procedure (SOPs) of the institute.
The caffeoylalphaneoendorphin peptide derivative that was a test material prepared from Example 1 was dissolved in a concentration of 10 mg/ml (10,000 ppm), and then 0.5 ml per each animal was used by using the following method. […] The abraded skins were made to have a scratch without blood by using a needle end of syringe so that the horny layer of the skin was damaged, but the corium of the skin was not damaged. After the test materials were applied to one site of abraded skins and one site of intact skins, the sites were occlusive-patched with non-irritative tape and Coban for 24 hours. Control regions were applied with sterilized gauze wetted with sterilized distilled water by using the same method as the above (see FIG. 4).
In order to observe as to whether skin irritation was occurred, a change of general symptoms and as to whether animals were killed were observed during 72 hours after completing the application of test materials as the observation of general symptoms. In addition, the body weights per individual were measured immediately before applying the test materials and at 72 hours after applying the test materials. […] The evaluation of skin response and decision of irritant were performed based on the evaluation table of skin response as disclosed in the following Table 1. The decision of irritant content to the result was performed according to a calculation method of P.I.I. (Primary Irritation Index) by Draize, which is well used, generally (see Table 2).

Series [3] is described as follows: Physical stability test under alternating temperature. In kind it is physicochemical. The following applies: alternating temperature 4/20/40° C. at 8 h interval, up to 60 days, naked eye. The text has this:
The physical stability under the condition of severe alternating temperature is an essential factor in the terms of the product property to be exposed to various external atmospheres in the case of cosmetics. The caffeoylalphaneoendorphin peptide derivative prepared from Example 1 has an increased stability to oxidation rather than that of caffeic acid in an aqueous solution. In order to confirm the increased physical stability, it was stored under the condition of alternating temperature for certain period time, and then its degradation degree was measured.
Firstly, 10,000 ppm concentration of caffeoylalphaneoendorphin peptide derivative aqueous solution was placed under the conditions of alternating temperatures, that is, low temperature (4° C.), room temperature (20° C.), and high temperature (40° C.) that were repeated at an interval of 8 hours, and then the physical stability was measured by the naked eye and HPLC Analysis for 30 days, 60 days, and 90 days.

[4] abbreviates: test sites, abraded skin, 24 hour.
Where [5] appears, read: test sites, abraded skin, 72 hour.
Setting [6] is: test sites, intact skin, 24 hour.
The mark [7] stands for this setting: test sites, intact skin, 72 hour.

Turning to `CC(C)C[C@H](NC(=O)[C@H](Cc1ccccc1)NC(=O)CNC(=O)CNC(=O)[C@H](Cc1ccc(O)cc1)NC(=O)/C=C/c1ccc(O)c(O)c1)C(=O)N[C@@H](CCCNC(=N)N)C(=O)N[C@@H](CCCCN)C(=O)N[C@@H](Cc1ccc(O)cc1)C(=O)N1CCC[C@H]1C(=O)N[C@@H](CCCCN)C(=O)O` [Caffeoyl (R1, R2, and R5 are hydrogen, and R3 and R4 are hydroxy)-alphaneoendorphin Peptide Derivative] (Caffeoyl-YGGFLRKYPK-OH), the degradation by peptidase entry in series [1] and in series [2] was “almost not degraded” throughout. Also, the “increase of existing contents versus alphaneoendorphin” value in series [1] (HPLC) is given as 6.1±1.3 times; in series [2] (HPLC), 5.9±2.1 times. Further, the Body weights was 2237.2 g and 2511.9 g and 2684.9 g and 2408.4 g and 2478.1 g and 2347.3 g in the series on NZW Rabbit skins (0 hours (immediately before applying), per animal); 2313.4 g and 2631.4 g and 2788.0 g and 2496.7 g and 2611.7 g and 2454.4 g with NZW Rabbit skins (72 hours after application, per animal). The “changes of body weights of all animals” value with NZW Rabbit skins (0 to 72 hours) was “normally increased”. For the same molecule, the Body weight gains in the series on NZW Rabbit skins (0 to 72 hours, per animal) is 76.2 g and 119.5 g and 103.1 g and 88.3 g and 133.6 g and 107.1 g. Also, the “toxicity in skin irritation test of topical toxicity” value in the series on NZW Rabbit skins (10 mg/ml) is given as “no toxicity”. The “Irritant Evaluation by P.I.I.” value with NZW Rabbit skins (10 mg/ml applied over NZW Rabbit skins) is reported as “none irritant”. Also, the clinical signs result in the series on NZW Rabbit skins (10 mg/ml, 0.5 ml per animal, 0 hours after application, per animal) is reported as “—”; in the series with NZW Rabbit skins (10 mg/ml, 0.5 ml per animal, 24 hours after application, per animal), “—”; with NZW Rabbit skins (10 mg/ml, 0.5 ml per animal, 48 hours after application, per animal), “—”; with NZW Rabbit skins (10 mg/ml, 0.5 ml per animal, 72 hours after application, per animal), “—”. Moreover, the “Mortality (Number of dead animals/Number of total animals)” value in the series with NZW Rabbit skins (10 mg/ml, 0.5 ml per animal, female rabbits, 72 hours) is recorded as 0/6^a. In the series with NZW Rabbit skins (during the test period), the “death or unusual symptoms related to the application” value is on record as “no death or unusual symptoms”. For the same molecule, in the series on NZW Rabbit skins (test sites, 10 mg/ml, (Sum or mean at 24 and 72 hrs)/4), the “P.I.I (Primary Irritation Index)” value amounted to 0.0. For the same molecule, the “Edema score, Average” value in the series on NZW Rabbit skins (setting [4]), in the series with NZW Rabbit skins (setting [5]), in the series on NZW Rabbit skins (setting [6]) and with NZW Rabbit skins (setting [7]) was 0 each time. Besides, the “Edema score, Sum” value in the series with NZW Rabbit skins (setting [4]), in the series with NZW Rabbit skins (setting [5]), in the series on NZW Rabbit skins (setting [6]) and in the series with NZW Rabbit skins (setting [7]) was 0 each time. The “Erythema & Eschar score, Average” value with NZW Rabbit skins (setting [4]), in the series with NZW Rabbit skins (setting [5]), in the series on NZW Rabbit skins (setting [6]) and in the series with NZW Rabbit skins (setting [7]) was 0 in each case. Moreover, the “Erythema & Eschar score, Sum” value in the series with NZW Rabbit skins (setting [4]), in the series with NZW Rabbit skins (setting [5]), in the series on NZW Rabbit skins (setting [6]) and in the series on NZW Rabbit skins (setting [7]) was 0 throughout. Further, the “Erythema & Eschar score” value was determined as 0 in the series on NZW Rabbit skins (test sites, abraded skin, 24 hour, per animal); 0 with NZW Rabbit skins (test sites, abraded skin, 72 hour, per animal); 0 in the series with NZW Rabbit skins (test sites, intact skin, 24 hour, per animal); 0 in the series with NZW Rabbit skins (test sites, intact skin, 72 hour, per animal). Also, in the series on NZW Rabbit skins (test sites, erythema & eschar and edema, 24 and 72 hour), the “Sum of Averages” value came out at 0.0.
For the molecule `O=C(O)/C=C/c1ccc(O)c(O)c1` [caffeic acid], in series [3], the “acidification of aqueous solution (change of transparency)” value was “serious acidification”.
Regarding YGGFLRKYPK [alphaneoendorphin], the degradation by peptidase result in series [1] and in series [2] was “considerably degraded” throughout.
